Results published in patent US7192924B2, “Corticotropin releasing factor 2 receptor agonists” (priority 2002, dated 2007).
pEC50: −log10 of the molar value. Peptide text beside a SMILES is read from it.

Tests used:
CRF2R = biological target: T1, CRF2R (Homo sapiens, UniProt Q13324); assay: CRF2R agonist activity (EC50, Emax), called comparative CRF binding; format: cell-based; conditions: read-out: CRF2R EC50
T1 sequence (Q13324 1-411): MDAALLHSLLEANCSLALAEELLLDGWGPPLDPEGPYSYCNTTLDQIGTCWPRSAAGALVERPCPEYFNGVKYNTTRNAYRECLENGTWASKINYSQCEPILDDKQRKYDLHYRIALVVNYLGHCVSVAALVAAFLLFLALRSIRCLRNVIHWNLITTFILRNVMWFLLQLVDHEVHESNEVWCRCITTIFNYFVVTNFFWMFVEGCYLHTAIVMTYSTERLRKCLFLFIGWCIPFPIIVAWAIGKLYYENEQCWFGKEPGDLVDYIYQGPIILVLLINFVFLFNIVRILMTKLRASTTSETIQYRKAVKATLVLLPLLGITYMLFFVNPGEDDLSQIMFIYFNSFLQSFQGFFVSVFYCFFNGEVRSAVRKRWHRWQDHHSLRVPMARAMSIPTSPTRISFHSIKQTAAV
Description: (§1) The pharmacological activity and selectivity of the peptides of present invention can be determined using published test procedures. See, e.g, U.S. patent application Ser. No. 09/799,978. Because CRF2R and CRF1R are homologous proteins, it is expected that a certain proportion of agonists for CRF2R will also function as agonists of CRF1R. As discussed above, activation of CRF1R induces activation of the HPA axis since increased corticosteroid production leads to skeletal muscle atrophy. In most cases in which an increase in muscle mass or function is desired, it is not desirable to activate the HPA axis.
(§2) Because it is desirable to discriminate binding between CRF2R, as compared with CRF1R, the assays described above may be conducted using a cell, or membrane from a cell, which expresses only CRF2R or the assays can be conducted with a recombinant source of CRF2R. Cells expressing both forms of CRFR may be modified using homologous recombination to inactivate or otherwise disable the CRF1R gene. Alternatively, if the source of CRFR contains more than one CRFR type, the background signal produced by the receptor which is not of interest must be subtracted from the signal obtained in the assay. […] Known antagonists of CRFRs include, but, are not limited to, antalarmin (CRF1R selective), antisauvagine-30 (CRF2R selective) and astressin (nonselective for CRF1R/CRF2R).
(§3) Cell-based assays include the steps of contacting cells which express CRF1R or CRF2R with a peptide of the present invention or control and measuring activation of the CRFR by measuring the expression or activity of components of the CRFR signal transduction pathways.
(§4) As described in the background section above, CRFRs appear to couple through several different pathways including Gαs, Gαq or Gαi, depending upon the cell type. It is thought that agonist activation of CRFR allows the receptor to signal via any of these pathways, provided that the necessary pathway components are present in the particular cell type. Thus, to assay a particular peptide of the present invention for CRFR activation, an assay can use any of the signal transduction pathways as the readout even if the relevant cell type for treatment, in vivo, couples CRFR to skeletal muscle atrophy via a different pathway. […] Assays for measuring activation of these signaling pathways are known in the art.
(§5) For example, after contact with a peptide of the present invention, lysates of the cells can be prepared and assayed for induction of cAMP. cAMP is induced in response to Gαs activation. Because Gαs is activated by receptors other than CRFR and because a test peptide may be exerting its effect through CRFRs or by another mechanism, two control comparisons are relevant for determining whether the peptide increases levels of cAMP via activation of a CRFR. One control compares the cAMP level of cells contacted with the peptide and the cAMP level of cells contacted with a control compound (i.e., the vehicle in which the peptide is dissolved).
(§6) In one example, cAMP induction is measured with the use of DNA constructs containing the cAMP responsive element linked to any of a variety of reporter genes can be introduced into cells expressing CRFRs. Such reporter genes include, but are not limited to, chloramphenicol acetyltransferase (CAT), luciferase, glucuronide synthetase, growth hormone, fluorescent proteins (e.g., Green Fluorescent Protein), or alkaline phosphatase. Following exposure of the cells to the peptide, the level of reporter gene expression can be quantitated to determine the peptide's ability to increase cAMP levels and thus determine the peptide's ability to activate the CRFR.
(§7) In addition to using cells expressing full length CRFRs, cells can be engineered which express CRFRs containing the ligand binding domain of the receptor coupled to, or physically modified to contain, reporter elements or to interact with signaling proteins.

CRF1R = biological target: T2, CRF1R (Homo sapiens, UniProt P34998); assay: CRF1R agonist activity (EC50, Emax), called comparative CRF binding; format: cell-based; conditions: read-out: CRF1R EC50
T2 sequence (P34998 24-415): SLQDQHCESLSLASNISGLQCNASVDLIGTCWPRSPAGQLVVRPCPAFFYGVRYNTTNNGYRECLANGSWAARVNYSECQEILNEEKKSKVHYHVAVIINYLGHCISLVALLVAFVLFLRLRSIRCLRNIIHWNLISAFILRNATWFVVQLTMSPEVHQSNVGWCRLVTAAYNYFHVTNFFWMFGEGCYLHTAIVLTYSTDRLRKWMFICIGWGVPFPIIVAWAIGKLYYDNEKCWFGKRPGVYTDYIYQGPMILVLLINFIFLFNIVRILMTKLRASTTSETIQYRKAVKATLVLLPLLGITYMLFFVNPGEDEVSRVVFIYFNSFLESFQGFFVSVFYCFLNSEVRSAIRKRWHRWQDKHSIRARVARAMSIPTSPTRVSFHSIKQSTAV
Description: as §1, §2, §3, §4, §5, §6, §7

CC[C@H](C)[C@H](N)C(=O)N[C@H](C(=O)N[C@@H](CC(C)C)C(=O)N[C@@H](CO)C(=O)N[C@@H](CC(C)C)C(=O)N[C@@H](CC(=O)O)C(=O)N[C@H](C(=O)N1CCC[C@H]1C(=O)N[C@H](C(=O)NCC(=O)N[C@@H](CC(C)C)C(=O)N[C@@H](CC(C)C)C(=O)N[C@@H](CCC(N)=O)C(=O)N[C@H](C(=O)N[C@@H](CC(C)C)C(=O)N[C@@H](CC(C)C)C(=O)N[C@@H](CCC(=O)O)C(=O)N[C@@H](CCC(N)=O)C(=O)N[C@@H](C)C(=O)N[C@@H](CCCNC(=N)N)C(=O)N[C@@H](C)C(=O)N[C@@H](CCCNC(=N)N)C(=O)N[C@@H](C)C(=O)N[C@@H](C)C(=O)N[C@@H](CCCNC(=N)N)C(=O)N[C@@H](CCC(=O)O)C(=O)N[C@@H](CCC(N)=O)C(=O)N[C@@H](C)C(=O)N[C@H](C(=O)N[C@H](C(=O)N[C@@H](CC(N)=O)C(=O)N[C@@H](C)C(=O)N[C@@H](CCCNC(=N)N)C(=O)N[C@H](C(=O)N[C@@H](CC(C)C)C(=O)N[C@@H](C)C(=O)N[C@@H](CCCNC(=N)N)C(=O)N[C@H](C(=O)N[C@@H](CCSC)C(N)=O)C(C)C)[C@@H](C)CC)[C@@H](C)O)[C@@H](C)O)[C@@H](C)CC)[C@@H](C)CC)C(C)C)C(C)C [compound 356] (H-IVLSLDVPIGLLQILLEQARARAAREQATTNARILARVM-NH2; N-terminus assumed)
pEC50 (CRF2R): 7.08

CC[C@H](C)[C@H](N)C(=O)N[C@H](C(=O)N[C@@H](CC(C)C)C(=O)N[C@@H](CO)C(=O)N[C@@H](CC(C)C)C(=O)N[C@@H](CC(=O)O)C(=O)N[C@H](C(=O)N1CCC[C@H]1C(=O)N[C@H](C(=O)NCC(=O)N[C@@H](CC(C)C)C(=O)N[C@@H](CC(C)C)C(=O)N[C@@H](CCC(N)=O)C(=O)N[C@H](C(=O)N[C@@H](CC(C)C)C(=O)N[C@@H](CC(C)C)C(=O)N[C@@H](CCC(=O)O)C(=O)N[C@@H](CCC(N)=O)C(=O)N[C@@H](CCC(=O)O)C(=O)N[C@@H](CCCCN)C(=O)N[C@@H](C)C(=O)N[C@@H](CCCNC(=N)N)C(=O)N[C@@H](C)C(=O)N[C@@H](C)C(=O)N[C@@H](CCCNC(=N)N)C(=O)N[C@@H](CCC(=O)O)C(=O)N[C@@H](CCC(N)=O)C(=O)N[C@@H](C)C(=O)N[C@H](C(=O)N[C@H](C(=O)N[C@@H](CC(N)=O)C(=O)N[C@@H](C)C(=O)N[C@@H](CCCNC(=N)N)C(=O)N[C@H](C(=O)N[C@@H](CC(C)C)C(=O)N[C@@H](C)C(=O)N[C@@H](CCCNC(=N)N)C(=O)N[C@H](C(N)=O)C(C)C)[C@@H](C)CC)[C@@H](C)O)[C@@H](C)O)[C@@H](C)CC)[C@@H](C)CC)C(C)C)C(C)C [compound 107] (H-IVLSLDVPIGLLQILLEQEKARAAREQATTNARILARV-NH2)
pEC50 (CRF1R): ≤ 6.00

CC[C@H](C)[C@H](NC(=O)[C@H](C)NC(=O)[C@H](CC(N)=O)NC(=O)[C@H](CCC(N)=O)NC(=O)[C@H](CCC(=O)O)NC(=O)[C@H](C)NC(=O)[C@H](CCCNC(=N)N)NC(=O)[C@H](CCC(=O)O)NC(=O)[C@H](CCCNC(=N)N)NC(=O)[C@H](CCC(N)=O)NC(=O)[C@H](CO)NC(=O)[C@H](CCC(N)=O)NC(=O)[C@@H](NC(=O)[C@H](CCCCN)NC(=O)[C@H](CCC(=O)O)NC(=O)[C@H](CC(C)C)NC(=O)[C@H](CCC(=O)O)NC(=O)[C@H](CC(C)C)NC(=O)[C@H](CC(C)C)NC(=O)[C@@H](NC(=O)[C@H](CCCNC(=N)N)NC(=O)[C@H](CC(C)C)NC(=O)[C@H](CC(C)C)NC(=O)[C@H](CC(C)C)NC(=O)[C@H](CC(C)C)NC(=O)[C@@H]1CCCN1C(=O)[C@H](CC(C)C)NC(=O)[C@H](CC(=O)O)NC(=O)[C@@H](NC(=O)[C@H](CO)NC(=O)[C@H](CC(C)C)NC(=O)[C@H](CO)NC(=O)[C@@H]1CCCN1)[C@@H](C)CC)[C@@H](C)O)[C@@H](C)O)C(=O)N[C@H](C(=O)N[C@@H](Cc1ccccc1)C(=O)N[C@@H](C)C(=O)N[C@@H](CO)C(=O)N[C@H](C(N)=O)C(C)C)[C@@H](C)CC [compound 348] (H-PSLSIDLPLLLLRTLLELEKTQSQRERAEQNAIIFASV-NH2)
pEC50 (CRF2R): 8.24

CC[C@H](C)[C@H](NC(=O)[C@H](C)NC(=O)[C@H](CC(N)=O)NC(=O)[C@H](CCC(N)=O)NC(=O)[C@H](CCC(=O)O)NC(=O)[C@H](C)NC(=O)[C@H](CCCNC(=N)N)NC(=O)[C@H](CCC(=O)O)NC(=O)[C@H](CCCNC(=N)N)NC(=O)[C@H](CCC(N)=O)NC(=O)[C@H](CO)NC(=O)[C@H](CCC(N)=O)NC(=O)[C@@H](NC(=O)[C@H](CCCCN)NC(=O)[C@H](CCC(=O)O)NC(=O)[C@H](CC(C)C)NC(=O)[C@H](CCC(=O)O)NC(=O)[C@H](CC(C)C)NC(=O)[C@H](CC(C)C)NC(=O)[C@@H](NC(=O)[C@H](CCCNC(=N)N)NC(=O)[C@H](CC(C)C)NC(=O)[C@H](CC(C)C)NC(=O)[C@H](CC(C)C)NC(=O)[C@H](CC(C)C)NC(=O)[C@@H]1CCCN1C(=O)[C@H](CC(C)C)NC(=O)[C@H](CC(=O)O)NC(=O)[C@@H](NC(=O)[C@H](CO)NC(=O)[C@H](CC(C)C)NC(=O)[C@H](CO)NC(=O)[C@@H]1CCCN1C(=O)[C@H](CC(N)=O)NC(=O)[C@@H](N)CC(=O)O)[C@@H](C)CC)[C@@H](C)O)[C@@H](C)O)C(=O)N[C@H](C(=O)N[C@@H](Cc1ccccc1)C(=O)N[C@@H](C)C(=O)N[C@@H](CO)C(=O)N[C@H](C(N)=O)C(C)C)[C@@H](C)CC [compound 346] (H-DNPSLSIDLPLLLLRTLLELEKTQSQRERAEQNAIIFASV-NH2)
pEC50 (CRF2R): 8.07

CC[C@H](C)[C@H](N)C(=O)N[C@H](C(=O)N[C@@H](CC(C)C)C(=O)N[C@@H](CO)C(=O)N[C@@H](CC(C)C)C(=O)N[C@@H](CC(=O)O)C(=O)N[C@H](C(=O)N1CCC[C@H]1C(=O)N[C@H](C(=O)NCC(=O)N[C@@H](CC(C)C)C(=O)N[C@@H](CC(C)C)C(=O)N[C@@H](CCC(N)=O)C(=O)N[C@H](C(=O)N[C@@H](CC(C)C)C(=O)N[C@@H](CC(C)C)C(=O)N[C@@H](CCC(=O)O)C(=O)N[C@@H](CCC(N)=O)C(=O)N[C@@H](CCC(=O)O)C(=O)N[C@@H](CCCCN)C(=O)N[C@@H](C)C(=O)N[C@@H](CCCNC(=N)N)C(=O)N[C@@H](C)C(=O)N[C@@H](C)C(=O)N[C@@H](CCCNC(=N)N)C(=O)N[C@@H](CCC(=O)O)C(=O)N[C@@H](CCC(N)=O)C(=O)N[C@@H](C)C(=O)N[C@H](C(=O)N[C@H](C(=O)N[C@@H](CC(N)=O)C(=O)N[C@@H](C)C(=O)N[C@@H](CCCNC(=N)N)C(=O)N[C@H](C(=O)N[C@@H](CC(C)C)C(=O)N[C@@H](C)C(=O)N[C@@H](CCCNC(=N)N)C(=O)N[C@H](C(N)=O)C(C)C)[C@@H](C)CC)[C@@H](C)O)[C@@H](C)O)[C@@H](C)CC)[C@@H](C)CC)C(C)C)C(C)C [compound 325] (H-IVLSLDVPIGLLQILLEQEKARAAREQATTNARILARV-NH2)
pEC50 (CRF2R): 7.93
